What was measured:
[1] = biological target: T1, recombinant human PPARγ (GST-PPARγ) (Homo sapiens, UniProt P37231); experiment: Scintillation Proximity Assay, displacement of [3H2]Compound A from PPARγ; format: binding; details: human PPARγ binding; read-out: IC50 (μM: SPA or BND) Gamma
T1 construct: The full length human cDNA for PPARγ 2 was subcloned into the pGEX-2 T expression vector; made in house; host or cells: E. coli
T1 sequence (P37231 1-505): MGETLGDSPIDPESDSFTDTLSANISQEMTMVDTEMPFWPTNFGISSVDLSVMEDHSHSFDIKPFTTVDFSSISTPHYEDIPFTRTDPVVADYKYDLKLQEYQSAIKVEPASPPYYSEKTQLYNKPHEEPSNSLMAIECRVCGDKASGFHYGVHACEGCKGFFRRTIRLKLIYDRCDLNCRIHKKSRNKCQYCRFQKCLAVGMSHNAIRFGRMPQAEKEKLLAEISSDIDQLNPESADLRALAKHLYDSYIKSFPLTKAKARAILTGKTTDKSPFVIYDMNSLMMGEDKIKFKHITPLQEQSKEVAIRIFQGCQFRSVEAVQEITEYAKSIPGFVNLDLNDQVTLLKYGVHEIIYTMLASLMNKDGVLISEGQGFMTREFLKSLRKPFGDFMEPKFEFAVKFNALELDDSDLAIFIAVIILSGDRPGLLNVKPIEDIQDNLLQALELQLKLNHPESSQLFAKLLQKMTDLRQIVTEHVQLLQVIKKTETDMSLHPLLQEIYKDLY
Source text: (§1) As an approach to identifying human PPAR agonists, a Scintillation Proximity Assay was used to characterize PPAR-γ, PPAR-δ, and PPAR-α ligands.
(§2) Human PPARγ2, human PPARδ and human PPARα were expressed as GST-fusion proteins in E. coli. The full length human cDNA for PPARγ 2 was subcloned into the pGEX-2 T expression vector (Amersham Pharmacia Biotech, Inc.). The full length human cDNAs for PPARδ and PPARα were subcloned into the pGEX-KT expression vector (Amersham Pharmacia Biotech, Inc.). E. coli containing the respective plasmids were propagated, induced, and harvested by centrifugation. The resuspended pellet was broken in a French press and debris removed by centrifugation. Recombinant human PPAR receptors were purified by affinity chromatography on glutathione sepharose. After application to the column, and one wash, receptor was eluted with glutathione. Glycerol (10%) was added to stabilize the receptor and aliquots were stored at −80° C.
(§3) After incubation for ˜16 h at 15° C. with shaking, the assay plates were counted in a Packard Topcount with quench correction.

[2] = biological target: T2, recombinant human PPARα (GST-PPARα) (Homo sapiens, UniProt Q07869); experiment: Scintillation Proximity Assay, displacement of [3H2]Compound A from PPARα; format: binding; details: human PPARα binding; read-out: IC50 (μM: SPA or BND) Alpha
T2 construct: The full length human cDNAs for PPARδ and PPARα were subcloned into the pGEX-KT expression vector; made in house; host or cells: E. coli
T2 sequence (Q07869 1-468): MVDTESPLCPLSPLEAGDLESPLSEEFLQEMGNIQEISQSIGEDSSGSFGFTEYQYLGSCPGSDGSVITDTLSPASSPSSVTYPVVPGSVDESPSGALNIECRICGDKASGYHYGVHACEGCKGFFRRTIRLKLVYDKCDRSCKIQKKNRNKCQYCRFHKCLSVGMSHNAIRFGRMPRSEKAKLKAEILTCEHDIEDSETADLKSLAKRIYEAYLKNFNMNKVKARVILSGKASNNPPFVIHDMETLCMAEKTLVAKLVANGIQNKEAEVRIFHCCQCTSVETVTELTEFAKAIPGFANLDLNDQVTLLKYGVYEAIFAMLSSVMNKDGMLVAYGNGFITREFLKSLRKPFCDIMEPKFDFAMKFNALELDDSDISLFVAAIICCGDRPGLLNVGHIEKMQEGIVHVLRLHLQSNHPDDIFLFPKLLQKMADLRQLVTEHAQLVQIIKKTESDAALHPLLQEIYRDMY
Source text: as §1, §2, §3

[3] = test system: PPAR-α, PPAR-γ and PPAR-δ; experiment: Classification of ligands according to their PPAR activity (Table A); parameters: species or system human; details: classification based on IC50 and EC50 data of Table B
[4] = biological target: T3, recombinant human PPARδ (GST-PPARδ) (Homo sapiens, UniProt Q03181); experiment: Scintillation Proximity Assay, displacement of [3H2]Compound B from PPARδ; format: binding; details: human PPARδ binding; read-out: IC50 (μM: SPA or BND) Delta
T3 construct: The full length human cDNAs for PPARδ and PPARα were subcloned into the pGEX-KT expression vector; made in house; host or cells: E. coli
T3 sequence (Q03181 1-441): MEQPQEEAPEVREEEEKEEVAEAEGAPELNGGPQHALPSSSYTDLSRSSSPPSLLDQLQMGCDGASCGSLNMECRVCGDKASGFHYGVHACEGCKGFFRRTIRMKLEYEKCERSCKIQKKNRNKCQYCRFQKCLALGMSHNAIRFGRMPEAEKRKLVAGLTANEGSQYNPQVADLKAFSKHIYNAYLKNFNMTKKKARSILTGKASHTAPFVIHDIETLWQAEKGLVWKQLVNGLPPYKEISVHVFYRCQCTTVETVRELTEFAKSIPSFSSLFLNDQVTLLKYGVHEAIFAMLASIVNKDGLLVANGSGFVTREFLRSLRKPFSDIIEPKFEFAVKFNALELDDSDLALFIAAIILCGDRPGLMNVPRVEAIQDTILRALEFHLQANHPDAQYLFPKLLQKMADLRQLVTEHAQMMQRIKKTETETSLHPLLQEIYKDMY
Source text: as §1, §2, §3

IC50 [1]: 0.097 µM | IC50 [2]: 1.48 µM | IC50 [4]: 15 µM
SMILES: CCCc1cc(Oc2ccccc2)ccc1OCCc1cc2cc(CC(=O)O)ccc2[nH]1 [Compound 2, {2-[2-(4-phenoxy-2-propylphenoxy)ethyl]-1H-indol-5-yl}acetic acid]
PPAR Activity [3]: Gamma Agonist
